Assay results: patent US20050014849A1, “Antifungal phenylethylene” (priority 2001, published 2005)

How the values were obtained:
bovine brain tubulin [1] = test system: T1, bovine brain tubulin; assay: Tubulin polymerization assay; assay type: biochemical; conditions: 1 mg/ml tubulin; 20 min incubation at 30° C.
T1 construct: Electrophoretically homogeneous bovine brain tubulin [12]
Procedure: (§1) Electrophoretically homogeneous bovine brain tubulin [12] was used in studies to evaluate the effects of TMPN on in vitro tubulin polymerization and the binding of […] (Dupont-NEN) to tubulin. These studies were performed as described previously. In the polymerization assay, varying drug concentrations were added to 1 mg/ml tubulin to determine the amount of drug that would inhibit the extent of the reaction by 50% (20 min incubation at 30° C.) (IC50 value). In the colchicine binding assay, the effect of varying drug concentrations on the binding of 2 μg/ml colchicine to 100 μg/ml tubulin was measured after 10 min at 37° C. (control reaction about 50% complete).

bovine brain tubulin [2] = test system: T1, bovine brain tubulin; assay: Colchicine binding assay; conditions: 5 μM (combretastatin A-4 1.6 μg/ml; TMPN 1.2 μg/ml); 10 min at 37° C.
Procedure: as §1

SMILES: COc1ccc(/C=C\c2cc(OC)c(OC)c(OC)c2)cc1O [combretastatin A-4, reference compound]
- IC50 for inhibition of the extent of tubulin assembly (bovine brain tubulin [1]): 0.32 ± 0.02 µg/mL
- inhibition of [^3H]colchicine binding to tubulin (bovine brain tubulin [2]): 98+1%
